Data set [1] deals with T1, Extracellular calcium-sensing receptor (Homo sapiens) (UniProt P41180).
T1 sequence (whole entry): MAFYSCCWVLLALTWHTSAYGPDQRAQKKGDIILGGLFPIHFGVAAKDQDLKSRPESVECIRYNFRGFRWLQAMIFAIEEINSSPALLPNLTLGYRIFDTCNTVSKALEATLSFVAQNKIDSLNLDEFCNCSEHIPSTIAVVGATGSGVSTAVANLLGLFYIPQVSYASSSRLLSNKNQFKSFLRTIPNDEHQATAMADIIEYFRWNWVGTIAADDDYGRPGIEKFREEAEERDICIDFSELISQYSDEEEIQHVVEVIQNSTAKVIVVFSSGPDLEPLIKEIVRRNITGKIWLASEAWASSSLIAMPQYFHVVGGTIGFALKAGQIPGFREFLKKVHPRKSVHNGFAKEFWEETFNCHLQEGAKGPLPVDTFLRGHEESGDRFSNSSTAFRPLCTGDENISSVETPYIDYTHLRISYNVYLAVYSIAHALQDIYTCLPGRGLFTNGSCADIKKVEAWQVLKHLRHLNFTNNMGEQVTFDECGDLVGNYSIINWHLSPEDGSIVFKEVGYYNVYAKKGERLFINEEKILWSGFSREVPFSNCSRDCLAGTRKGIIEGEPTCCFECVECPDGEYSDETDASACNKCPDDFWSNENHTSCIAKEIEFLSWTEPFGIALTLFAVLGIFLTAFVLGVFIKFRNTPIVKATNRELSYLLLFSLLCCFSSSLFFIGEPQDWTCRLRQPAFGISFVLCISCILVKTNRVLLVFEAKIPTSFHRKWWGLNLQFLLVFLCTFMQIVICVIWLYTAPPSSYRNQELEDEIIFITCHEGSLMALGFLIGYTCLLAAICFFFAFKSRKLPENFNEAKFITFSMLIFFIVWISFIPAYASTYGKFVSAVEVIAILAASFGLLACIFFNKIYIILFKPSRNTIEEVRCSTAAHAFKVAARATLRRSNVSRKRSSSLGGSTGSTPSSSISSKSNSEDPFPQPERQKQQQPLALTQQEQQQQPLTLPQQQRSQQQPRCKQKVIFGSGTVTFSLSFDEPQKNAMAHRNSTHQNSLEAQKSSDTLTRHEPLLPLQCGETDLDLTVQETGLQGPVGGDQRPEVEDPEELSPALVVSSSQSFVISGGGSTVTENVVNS
The experiment in a line: (§1) Agonist activity at human CaSR expressed in HEK293 cells assessed as increase in intracellular calcium mobilization by fluo-4AM dye based FLIPR assay. It counts as functional, cell-based.

Data set [2] concerns the target T2, Extracellular calcium-sensing receptor (Homo sapiens, UniProt P41180).
T2 sequence (P41180 whole entry): T1 sequence (whole entry)
The data set is described as §1. Format: functional, cell-based. Conditions: read-out: pEC50 (converted).

Data set [3] in a line: Cmax in CD rat portal vein at 30 mg/kg, po administered via gavage. It counts as ADME, organism-based. Set-up: dose 30 mg/kg, route oral.
Data set [4] can be described thus: Cmax in CD rat systemic circulation at 30 mg/kg, po administered via gavage. Set-up: dose 30 mg/kg, route oral. It counts as ADME, organism-based.
A short description of data set [5]: Half-life in Sprague-Dawley rat cecal homogenates at 10 uM by LC-MS/MS analysis. It counts as ADME, tissue-based, Caecum.
Data set [6] in a line: Drug recovery in CD rat feces at 30 mg/kg, po administered via gavage measured by LC-MS/MS analysis. Format: ADME, organism-based. Conditions: read-out: Drug recovery.
Data set [7] is described as follows: Cmax in CD rat systemic circulation at 50 mg/kg, po administered via gavage. It counts as ADME, organism-based. Set-up: dose 50 mg/kg, route oral.
Data set [8] in a line: Cmax in CD rat portal vein at 50 mg/kg, po administered via gavage. It counts as ADME, organism-based. Set-up: dose 50 mg/kg, route oral.

A value given as a limit tells only on which side of the number the result lay.

`C[C@@H](N[C@H]1CCN(c2ccc(C(=O)NCC(=O)O)cc2)C1)c1cccc2ccccc12`: the %max in data set [1] is 69%. Moreover, the EC50 in data set [2] was 79.4 nM.

Take `C[C@@H](N[C@H]1CCN(c2ccc(C(=O)NCCCCNC(CO)(CO)CO)cc2)C1)c1cccc2ccccc12`: the results for the Cmax in data set [3] and in data set [4] were 540 ng/mL and 440 ng/mL, respectively. For the same compound, the %max in data set [1] came to 92%. In data set [2], the EC50 is 15.8 nM. The compound also gave a half-life at 10 µM in data set [5] of 8 h.

Take `C[C@@H](N[C@H]1CCN(c2ccc(C(=O)N[C@H](CCCCN)C(=O)O)cc2)C1)c1cccc2ccccc12`: the %max in data set [1] is 96%. Besides, in data set [2], the EC50 was 100 nM. In data set [5], this compound showed a half-life at 10 µM of 4.3 h.

For `C[C@@H](N[C@H]1CCN(c2ccc(S(=O)(=O)NCCn3cnc(C(=O)O)c3C(=O)O)cc2)C1)c1cccc2ccccc12`, the %max in data set [1] worked out at 127%. Also, the EC50 in data set [2] is 7.94 nM.

Take `C[C@@H](N[C@H]1CCN(c2ccc(P(=O)(O)O)cc2)C1)c1cccc2ccccc12`: in data set [1], the %max is 70%. Besides, the EC50 in data set [2] was 3160 nM.

For the compound `C[C@@H](N[C@H]1CCN(c2ccc(C(=O)N[C@H](CC(=O)O)C(=O)O)cc2)C1)c1cccc2ccccc12`, the dose excreted in data set [6] amounted to 65%. The Cmax worked out at 12 ng/mL in data set [3] and 9 ng/mL in data set [4]. Further, in data set [1], the %max was determined as 79%. In data set [2], the EC50 was 398 nM. In addition, in data set [5], the half-life at 10 µM was 9.1 h.

As to `C[C@@H](N[C@H]1CCN(c2ccc(C(=O)NCCNC(CO)(CO)CO)cc2)C1)c1cccc2ccccc12`, the %max in data set [1] amounted to 101%. For the same compound, in data set [2], the EC50 was 7.94 nM. The half-life at 10 µM in data set [5] was 3.4 h.

Consider `C[C@@H](N[C@H]1CCN(c2ccc(S(=O)(=O)NCCN(C)C)cc2)C1)c1cccc2ccccc12`, for which the %max in data set [1] was 84%. Also, the EC50 in data set [2] was 12.6 nM.

As for `C[C@@H](N[C@H]1CCN(c2ccc(C(=O)NCCN)cc2)C1)c1cccc2ccccc12`, the %max in data set [1] was 75%. For the same compound, the EC50 in data set [2] is 12.6 nM.

As to `C[C@@H](N[C@H]1CCN(c2ccc(C(=O)NC(CO)(CO)CO)cc2)C1)c1cccc2ccccc12`, in data set [1], the %max was found to be 80%. Besides, the EC50 in data set [2] is 39.8 nM. Also, the half-life at 10 µM in data set [5] was more than 12 h.

For `C[C@@H](N[C@H]1CCN(c2ccc(C(=O)NCC[N+](C)(C)C)cc2)C1)c1cccc2ccccc12.[Cl-]`, the highest concentration (Cmax) is 154 ng/mL in data set [7] and 164 ng/mL in data set [8]. Besides, in data set [1], the %max came to 83%. The EC50 in data set [2] is 126 nM. The compound also came in with a half-life at 10 µM in data set [5] of more than 12 h.

In the case of `C[C@@H](N[C@H]1CCN(c2ccc(C(=O)O)cc2)C1)c1cccc2ccccc12`, the %max in data set [1] came out at 84%. Further, in data set [2], the EC50 is 158 nM. Besides, in data set [5], the half-life at 10 µM is more than 12 h.

With `C[C@@H](N[C@H]1CCN(c2ccc(S(=O)(=O)NC(=O)CC(=O)O)cc2)C1)c1cccc2ccccc12`, the %max in data set [1] came to 79%. The EC50 in data set [2] was 1580 nM.

As to `C[C@@H](N[C@H]1CCN(c2ccc(S(=O)(=O)NC(=O)CCC(=O)O)cc2)C1)c1cccc2ccccc12`, in data set [1], the %max was found to be 74%. The EC50 in data set [2] is 501 nM. Also, in data set [5], the half-life at 10 µM was 10.5 h.

Consider `C[C@@H](N[C@H]1CCN(c2ccc(S(N)(=O)=O)cc2)C1)c1cccc2ccccc12`, for which the %max in data set [1] was determined as 87%. For the same compound, the EC50 in data set [2] was 20 nM. This compound also returned a half-life at 10 µM in data set [5] of more than 12 h.

In the case of `C[C@@H](N[C@H]1CCN(c2ccc(C(=O)NCCS(=O)(=O)O)cc2)C1)c1cccc2ccccc12`, in data set [1], the %max stood at 85%. Besides, the EC50 in data set [2] was 39.8 nM. The compound also showed a half-life at 10 µM in data set [5] of 0.8 h.

With `C[C@@H](N[C@H]1CCN(c2ccc(C(=O)NCCn3cnc(C(=O)O)c3C(=O)O)cc2)C1)c1cccc2ccccc12`, the dose excreted in data set [6] turned out to be 54%. For the same compound, the Cmax in data set [3] was 6 ng/mL; in data set [4], less than 4 ng/mL. Also, the %max in data set [1] is 96%. In data set [2], the EC50 is 5.01 nM. In data set [5], this compound gave a half-life at 10 µM of 7.8 h.

In the case of `C[C@@H](N[C@H]1CCN(c2ccc(S(=O)(=O)NCC(=O)O)cc2)C1)c1cccc2ccccc12`, the Cmax came out at 317 ng/mL in data set [7] and 1120 ng/mL in data set [8]. Besides, in data set [1], the %max was determined as 83%. For the same compound, the EC50 in data set [2] was 39.8 nM. The same compound had a half-life at 10 µM in data set [5] of more than 12 h.

The values above are taken from ChEMBL document CHEMBL4043225, “Identification of potent, nonabsorbable agonists of the calcium-sensing receptor for GI-specific administration” (Bioorg Med Chem Lett, 2017).
